According to patent US4536335A, “Carbapenem antibiotics” (Bristol-Myers Company, priority 1983, dated 1985):
Values after ≈ are worked out from the molar mass of the structure shown.

Tests used:
[1] = Half-life in phosphate buffer solution; assay type: physicochemical
Procedure: A solution of para-nitrobenzyl 3-[2-(N-methylthiomorpholinium diphenylphosphate)ethylthio]-6α-[1'-(R)-hydroxyethyl]-7-oxo-1-azabicyclo[3.2.0]hept-2-ene-2-carboxylate (1.31 g, 1.76 mmol) in 0.1 M pH 7.4 phosphate buffer (48.8 mL), tetrahydrofuran (20 mL) and diethyl ether (20 mL) was hydrogenated over 10% pd/C (1.5 g) in a Parr shaker for 1 h at 40 psi. The reaction mixture was diluted with diethyl ether (40 mL) and the phases were separated. The organic phase was washed with water (2×5 mL). The aqueous phases were combined, filtered through a #52 hardened filter paper, washed with diethyl ether (2×20 mL) and pumped under vacuum. The aqueous solution was poured on a silica gel reverse phase column and the desired carbapenem was eluted with 5% acetonitrile-water.
To a solution of p-nitrobenzyl (5R,6S)-3-[2-(1-methylmorpholino)ethylthio]-6-[(R)-1-hydroxyethyl]-7-oxo-1-azabicyclo[3.2.0]hept-2-ene-2-carboxylate diphenylphosphate (0.360 g, 0.49 mmol) in 13 mL of phosphate buffer (0.05 M pH 7.4) was added 0.36 g of 10% palladium-on-charcoal, 20 mL of tetrahydrofuran and 20 mL of diethyl ether. This mixture was hydrogenated (Parr) at 32 psi for 1 h. The mixture was filtered through Celite and the filter pad was washed with H2 O and diethyl ether. The aqueous phase was separated and the pH was adjusted to 7.0 with additional pH 7.4 phosphate buffer. After removing residual organic solvents in vacuo the aqueous solution was applied to a C18 reverse-phase column.
To a solution of (5R,6S)paranitrobenzyl 3-[2-(1,4-dimethyl-1-piperazinium)ethylthio]-6-[1-(R)-hydroxyethyl]-7-oxo- 1-azabicyclo[3.2.0]hept-2-ene-2-carboxylate diphenylphosphate (0.47 g, 0.623 mmol) in wet tetrahydrofuran (25 mL) was added diethyl ether (25 mL), potassium phosphate monobasic-sodium hydroxide buffer (13 mL, pH 7.22) and 10% palladium on charcoal (0.47 g). The resulting mixture was hydrogenated at 23° C. under 40 psi for 1 h. The two layers were separated and the organic layer was extracted with water (2×7 mL).
To a cold (-10° C.) solution of (5R,6S)-3-[2 -(N-methyl-thiomorpholinium)ethylthio]-6-[1-(R)-hydroxyethyl]-7-oxo-1-azabicyclo(3.2.0)-hept-2-ene-2-carboxylate (608 mg, 1.65 mmol) in a 1:1 mixture of acetonitrile-water (9 mL) was added m-chloroperbenzoic acid (334.8 mg, 1.65 mmol) in small portion over a 1 hour period. The mixture was then diluted with water (15 mL) and washed with diethyl ether (3×15 mL).
A mixture of (5R,6S) paranitrobenzyl 3-[2-(1,4,4-trimethyl-1-piperazinium)ethylthio]-6-[1R-hydroxyethyl]-7-oxo- 1-azabicyclo(3.2.0)hept-2-ene-2-carboxylate bischloride (0.40 g, 0.68 mmol), phosphate buffer (30 mL, 0.05M, pH 7.0), tetrahydrofuran (10 mL), ether (30 mL) and 10% palladium on charcoal (0.40 g) was hydrogenated at 23° C. under 35 psi for 1 h. The two phases were separated. The organic phase was extracted with water (10 mL).

S. pneumoniae A-9585 = assay: In vitro MIC, tube dilution; assay type: cell-based; settings: Nutrient Broth, overnight incubation at 37° C., additional data table
S. pyogenes A-9604 = assay: In vitro MIC, tube dilution; assay type: cell-based; settings: tube dilution, Nutrient Broth, overnight incubation at 37° C.; additional data table
S. aureus A-9537 = assay: In vitro MIC, tube dilution; assay type: cell-based; settings: tube dilution, overnight incubation at 37° C., additional data table
[2] = tested on: S. aureus A-9606 (Pen-res.); assay: In vitro MIC, tube dilution; assay type: cell-based; settings: Nutrient Broth, overnight incubation at 37° C., additional data table
S. faecalis A20688 = assay: In vitro MIC, tube dilution; assay type: cell-based; settings: tube dilution, Nutrient Broth, overnight incubation at 37° C.; additional data table
E. coli A15119 = assay: In vitro MIC, tube dilution; assay type: cell-based; settings: tube dilution, Nutrient Broth, overnight incubation at 37° C.; additional data table
E. coli A20341-1 = assay: In vitro MIC, tube dilution; assay type: cell-based; settings: tube dilution, Nutrient Broth, overnight incubation at 37° C.; additional data table
K. pneumoniae A-9664 = assay: In vitro MIC, tube dilution; assay type: cell-based; settings: tube dilution, Nutrient Broth, overnight incubation at 37° C.; additional data table
K. pneumoniae A20468 = assay: In vitro MIC, tube dilution; assay type: cell-based; settings: tube dilution, Nutrient Broth, overnight incubation at 37° C.; additional data table
P. mirabilis A-9900 = assay: In vitro MIC, tube dilution; assay type: cell-based; settings: tube dilution, Nutrient Broth, overnight incubation at 37° C.; additional data table
P. vulgaris A21559 = assay: In vitro MIC, tube dilution; assay type: cell-based; settings: tube dilution, Nutrient Broth, overnight incubation at 37° C.; additional data table
P. morganii A15153 = assay: In vitro MIC, tube dilution; assay type: cell-based; settings: tube dilution, Nutrient Broth, overnight incubation at 37° C.; additional data table
P. rettgeri A22424 = assay: In vitro MIC, tube dilution; assay type: cell-based; settings: tube dilution, Nutrient Broth, overnight incubation at 37° C.; additional data table
S. marcescens A20019 = assay: In vitro MIC, tube dilution; assay type: cell-based; settings: tube dilution, Nutrient Broth, overnight incubation at 37° C.; additional data table
E. cloacae A-9656 = assay: In vitro MIC, tube dilution; assay type: cell-based; settings: tube dilution, Nutrient Broth, overnight incubation at 37° C.; additional data table
P. aeruginosa A-9843A [3] = assay: In vitro MIC, tube dilution; assay type: cell-based; settings: Nutrient Broth, overnight incubation at 37° C., additional data table
P. aeruginosa A21213 = assay: In vitro MIC, tube dilution; assay type: cell-based; settings: tube dilution, Nutrient Broth, overnight incubation at 37° C.; additional data table
E. cloacae A-9659 = assay: In vitro MIC, tube dilution; assay type: cell-based; settings: tube dilution, Nutrient Broth, overnight incubation at 37° C.; additional data table
Text: N-formimidoyl thienamycin was included as a comparison compound.

P. aeruginosa A-9843a [4] = assay: Protective effect in the intramuscular treatment of infected mice (PD50); assay type: in vivo; settings: Pseudomonas aeruginosa, A9843A, im, read-out: PD50/treatment, P. aeruginosa A9843A
Procedure: The PD50 (dose in mg/kg required to give protection to 50% of the infected mice) is indicated.
Treatment Schedule: Mice were treated i.m. with drugs 0 and 2 hours post-infection; 5 mice per dose were used for each test
*For compound of Ex. 2, mice were infected i.p. with 2 × 10^9
compounds of Ex. 4 and 5, mice were infected i.p. with ~9 ×
were treated i.m. with drugs 0 and 2 h postinfection.

[5] = Blood levels in mice after intramuscular administration; assay type: in vivo; settings: mouse, blood, im, 20 mg/kg, intramuscular dose of 20 mg/kg
Text: Compounds were solubilized in 0.1 M phosphate buffer pH 7. Values are fro
a single test; 4 mice used per compound.
*t1/2 refers to halflife in minutes
**AUC refers to the area under the blood concentrationtime curve
(§1) Also shown is the urinary recovery in the mice.
Compounds were solubilized in 0.1 M phosphate buffer, pH 7.
Values based on a single test; 4 mice per compound.
*T1/2 refers to halflife in minutes

[6] = Urinary recovery after intramuscular administration to mice; assay type: in vivo; settings: mouse, urine, im, 20 mg/kg, intramuscular dose of 20 mg/kg, 0-6 hour collection, read-out: Urine Recovery
Procedure: Compounds were solubilized in 0.1 M phosphate buffer pH 7. Values are from a single test; 4 mice per compound.
as §1
***Recovery based on 0-6 hour collection

In the case of C[C@@H](O)[C@H]1C(=O)N2C(C(=O)O)=C(SCC[N+]3(C)CC[N+](C)(C)CC3)C[C@H]12 [Example 6, (5R,6S)-3-[2-(1,4,4-Trimethyl-1-piperazinium)-ethylthio]-6-(1R-hydroxyethyl]-7-oxo-1-azabicyclo(3.2.0)hept-2-ene-2-carboxylate chloride], the half-life ([1]; phosphate buffer, pH 7.4, concentration of 10^-4 M in phosphate buffer pH 7.4 at 36.8° C., read-out: t1/2 (solution stability) (converted)) is reported as 9.8 h.
For C[C@@H](O)[C@H]1C(=O)N2C(C(=O)[O-])=C(SCC[N+]3(C)CC[S+]([O-])CC3)C[C@H]12 (single isomer, unassigned) [Ex. 5 comp. A], the “MIC S. pneumoniae A-9585” value (S. pneumoniae A-9585) was 0.004 µg/mL (≈ 0.0103 µM), the “MIC S. pyogenes A-9604” value (S. pyogenes A-9604) was 0.004 µg/mL (≈ 0.0103 µM) and the “MIC S. aureus-50% serum A-9537” value (S. aureus A-9537; 50% serum) was 0.03 µg/mL (≈ 0.0772 µM). For the same molecule, the “MIC S. aureus A-9537” value (S. aureus A-9537; Nutrient Broth) was 0.016 µg/mL (≈ 0.0412 µM), the “MIC S. aureus (Pen-res.) A-9606” value [2] was 0.03 µg/mL (≈ 0.0772 µM) and the “MIC S. faecalis A20688” value (S. faecalis A20688) was 0.05 µg/mL (≈ 0.129 µM). The “MIC E. coli A15119” value (E. coli A15119) was 0.03 µg/mL (≈ 0.0772 µM), the “MIC E. coli A20341-1” value (E. coli A20341-1) was 0.03 µg/mL (≈ 0.0772 µM) and the “MIC K. pneumoniae A-9664” value (K. pneumoniae A-9664) was 0.06 µg/mL (≈ 0.154 µM). The “MIC K. pneumoniae A20468” value (K. pneumoniae A20468) was 0.13 µg/mL (≈ 0.335 µM), the “MIC P. mirabilis A-9900” value (P. mirabilis A-9900) was 0.13 µg/mL (≈ 0.335 µM) and the “MIC P. vulgaris A21559” value (P. vulgaris A21559) was 0.06 µg/mL (≈ 0.154 µM). The “MIC M. morganii A15153” value (P. morganii A15153) was 0.13 µg/mL (≈ 0.335 µM), the “MIC P. rettgeri A22424” value (P. rettgeri A22424) was 0.25 µg/mL (≈ 0.643 µM) and the “MIC S. marcescens A20019” value (S. marcescens A20019) was 0.06 µg/mL (≈ 0.154 µM). For the same molecule, the “MIC E. cloacae A-9656” value (E. cloacae A-9656) was 0.13 µg/mL (≈ 0.335 µM), the “MIC P. aeruginosa A-9843a” value (P. aeruginosa A-9843A [3]) was 32 µg/mL (≈ 82.4 µM) and the “MIC P. aeruginosa A21213” value (P. aeruginosa A21213) was 16 µg/mL (≈ 41.2 µM). For the same molecule, the “MIC E. cloacae A-9659” value (E. cloacae A-9659) was 0.13 µg/mL (≈ 0.335 µM), the ED50 (P. aeruginosa A-9843a [4]) was over 12.5 mg/kg and the Cmax [5] was 10200 ng/mL. For the same molecule, the AUC ([5]; read-out: Blood AUC) was 3100 ng·h/mL, the half-life ([5]; read-out: Blood T1/2) was 7 min and the dose excreted at 6 h [6] was 14 ± 1%. For the same molecule, the half-life ([1]; 0.065 m phosphate buffer, pH 7.4, 0.065 M, pH 7.4 phosphate buffer, 37° C., read-out: T 1/2 (solution stability) (converted)) was 12 h.
